The values below come from patent US20260151375A1, “CDK2 INHIBITORS AND METHODS OF USING THE SAME” (Cedilla Therapeutics, Inc., priority 2022, published 2026).

In one assay the test system is Kuramochi cells. The assay can be described thus: IncuCyte Kuramochi Assay (cell proliferation). The class given is cell-based. As to conditions: 72 h, Kuramochi cells labeled with mApple-H2B, cell count, read-out: IncuCyte - Kuramochi RB-WT: IC50. In short, it runs like this:
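Cells imaged at 0 and 72 h after compound treatment (10 points, ½ log dilution, 20 μM top), with fluorescent nuclei counted. Fold change in count was normalized to DMSO wells and fitted to dose-response curves to give GI50.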

The target in another assay is T1, CDK2/Cyclin E1 (Homo sapiens, UniProt P24941).
T1 construct: purchased 14-475
The assay is described as follows: Caliper Assay (LabChip EZ Reader mobility shift assay), inhibition of CDK2/Cyclin E1 activity. The class given is biochemical. As to conditions: 2.5 nM CDK2/Cyclin E1(14-475), 100 μM ATP, 30 min preincubation; read-out: Caliper Assay (CDK2/CCNE1): IC50. Summed up: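 Compounds were preincubated 30 min with CDK2/Cyclin E1(14-475), then run for 100 min with 2.5 nM enzyme, 100 μM ATP and 1.5 μM 5-FAM-QSPKKG peptide in HEPES pH 7.5 (final). Reactions were EDTA-stopped and substrate-to-product conversion read by mobility shift. IC50 came from a four-parameter fit.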

For the molecule `O=C(c1nccnc1O)N1CC(c2nnc(C(F)(F)c3ccc(Cl)c(Cl)c3)o2)C2(C1)CN(C(=O)[C@H]1CC1(F)F)C2` (stereo partly shown) [I-166], the IC50 in the assay on Kuramochi cells and at CDK2/Cyclin E1 was over 10 µM in each case.

As for `O=C(c1cn[nH]c1C(F)(F)F)N1CC(c2nnc(C(F)(F)c3ccc(Cl)c(Cl)c3)o2)C2(C1)CN(C(=O)[C@H]1CC1(F)F)C2` (stereo partly drawn) [I-167, (8-(5-((3,4-dichlorophenyl)difluoromethyl)-1,3,4-oxadiazol-2-yl)-2-((R)-2,2-difluorocyclopropane-1-carbonyl)-2,6-diazaspiro[3.4]octan-6-yl)(5-(trifluoromethyl)-1H-pyrazol-4-yl)methanone], the IC50 in the assay on Kuramochi cells and at CDK2/Cyclin E1 was over 10 µM throughout.

In the case of `O=C(c1cncs1)N1CC(c2nnc(C(F)(F)c3ccc(Cl)c(Cl)c3)o2)C2(C1)CN(C(=O)[C@H]1CCCN1)C2` (stereo partly drawn) [I-169 1st, 2-(2-(D-prolyl)-6-(thiazole-5-carbonyl)-2,6-diazaspiro[3.4]octan-8-yl)-5-((3,4-dichlorophenyl)difluoromethyl)-1,3,4-oxadiazole], the IC50 in the assay on Kuramochi cells is 5 to 10 µM; at CDK2/Cyclin E1 it was over 10 µM.

Turning to `O=C(c1cncs1)N1CC(c2nnc(C(F)(F)c3ccc(Cl)c(Cl)c3)o2)C2(C1)CN(C(=O)[C@@H]1CCCN1)C2` (stereo partly shown) [I-169 2nd], the IC50 with Kuramochi cells and at CDK2/Cyclin E1 was over 10 µM in each case.

Regarding `CC(C)(C(=O)N1CC2(C1)CN(c1ncnc3ncsc13)CC2c1nnc(C(F)(F)c2ccc(Cl)c(Cl)c2)o1)C(F)F` (stereo not shown) [I-170, 1-(8-(5-((3,4-dichlorophenyl)difluoromethyl)-1,3,4-oxadiazol-2-yl)-6-(thiazolo[4,5-d]pyrimidin-7-yl)-2,6-diazaspiro[3.4]octan-2-yl)-3,3-difluoro-2,2-dimethylpropan-1-one], the IC50 in the assay on Kuramochi cells and at CDK2/Cyclin E1 was over 10 µM in each case.

As for `O=C([C@H]1CC1(F)F)N1CC(c2nnc(C(F)(F)c3ccc(Cl)c(Cl)c3)o2)C2(C1)CN(C(=O)[C@H]1CC1(F)F)C2` (stereo partly shown) [I-171], the IC50 in the assay on Kuramochi cells and on CDK2/Cyclin E1 was over 10 µM in each case.

As to `O=C(c1cncs1)N1CC(c2nnc(C(F)(F)c3ccc(Cl)c(Cl)c3)o2)C2(C1)CN(C(=O)C1CNC1)C2` (stereo not shown) [I-173], the IC50 in the assay on Kuramochi cells and on CDK2/Cyclin E1 was over 10 µM in each case.

For `CC1(C(=O)N2CC3(C2)CN(c2ncnc4ncsc24)CC3c2nnc(C(F)(F)c3ccc(Cl)c(Cl)c3)o2)CC1(F)F` (stereo not shown) [I-174, (8-(5-((3,4-dichlorophenyl)difluoromethyl)-1,3,4-oxadiazol-2-yl)-6-(thiazolo[4,5-d]pyrimidin-7-yl)-2,6-diazaspiro[3.4]octan-2-yl)(2,2-difluoro-1-methylcyclopropyl)methanone], the figures for the IC50 in the assay on Kuramochi cells and at CDK2/Cyclin E1 were over 10 µM and 1 to 10 µM, respectively.

Take `CC(C)(C#N)C(=O)N1CC2(CN(C(=O)c3cnccn3)CC2c2nnc(C(F)(F)c3ccc(Cl)c(Cl)c3)o2)C1` (stereo not shown) [I-175]: the IC50 in the assay with Kuramochi cells and on CDK2/Cyclin E1 was over 10 µM in each case.

On to `O=C(c1cnccn1)N1CC(c2nnc(C(F)(F)c3ccc(Cl)c(Cl)c3)o2)C2(C1)CN(C(=O)[C@H]1CC1(F)F)C2` (stereo partly drawn) [I-176, (8-(5-((3,4-dichlorophenyl)difluoromethyl)-1,3,4-oxadiazol-2-yl)-2-((R)-2,2-difluorocyclopropane-1-carbonyl)-2,6-diazaspiro[3.4]octan-6-yl)(pyrazin-2-yl)methanone], for which the IC50 with Kuramochi cells was over 10 µM; at CDK2/Cyclin E1, 1 to 10 µM.

As to `CC(C)(C#N)C(=O)N1CC2(CN(C(=O)c3cn[nH]c3)CC2c2nnc(C(F)(F)c3ccc(Cl)c(Cl)c3)o2)C1` (stereo not shown) [I-177], the IC50 in the assay with Kuramochi cells and at CDK2/Cyclin E1 was over 10 µM each time.

As to `CC(C)(O)C(=O)N1CC2(CN(C(=O)c3cncs3)CC2c2nnc(C(F)(F)c3ccc(Cl)c(Cl)c3)o2)C1` (stereo not shown) [I-178], the IC50 with Kuramochi cells and at CDK2/Cyclin E1 was over 10 µM throughout.

Consider `CC1(C)OC1C(=O)N1CC2(CN(C(=O)c3cncs3)CC2c2nnc(C(F)(F)c3ccc(Cl)c(Cl)c3)o2)C1` (stereo not shown) [I-179, (8-(5-((3,4-dichlorophenyl)difluoromethyl)-1,3,4-oxadiazol-2-yl)-2-(3,3-dimethyloxirane-2-carbonyl)-2,6-diazaspiro[3.4]octan-6-yl)(thiazol-5-yl)methanone], for which the IC50 in the assay with Kuramochi cells was 5 to 10 µM; on CDK2/Cyclin E1 it was over 10 µM.

On to `O=C(c1cncs1)N1CC(c2nnc(C(F)(F)c3ccc(Cl)c(Cl)c3)o2)C2(CC(C(=O)N3CCC3)C2)C1` (stereo not shown) [I-180], for which the IC50 in the assay on Kuramochi cells and on CDK2/Cyclin E1 was over 10 µM each time.

For the molecule `O=C(N1CC2(C1)CN(c1ncnc3ncsc13)CC2c1nnc(C(F)(F)c2ccc(Cl)c(Cl)c2)o1)C1(C(F)(F)F)CC1` (stereo not shown) [I-181, (8-(5-((3,4-dichlorophenyl)difluoromethyl)-1,3,4-oxadiazol-2-yl)-6-(thiazolo[4,5-d]pyrimidin-7-yl)-2,6-diazaspiro[3.4]octan-2-yl)(1-(trifluoromethyl)cyclopropyl)methanone], the IC50 in the assay with Kuramochi cells and on CDK2/Cyclin E1 was over 10 µM throughout.

Regarding `O=C(c1cncs1)N1CC(c2nnc(C(F)(F)c3ccc(Cl)c(Cl)c3)o2)C2(CN(CC3CCCO3)C2)C1` (stereo not shown) [I-182, (8-(5-((3,4-dichlorophenyl)difluoromethyl)-1,3,4-oxadiazol-2-yl)-2-((tetrahydrofuran-2-yl)methyl)-2,6-diazaspiro[3.4]octan-6-yl)(thiazol-5-yl)methanone], the IC50 in the assay on Kuramochi cells and at CDK2/Cyclin E1 was over 10 µM each time.

In the case of `FC(F)(c1ccc(Cl)c(Cl)c1)c1nnc(C2CN(c3ncnc4ncsc34)CC23CN(c2ncccn2)C3)o1` (stereo not shown) [I-183, 2-((3,4-dichlorophenyl)difluoromethyl)-5-(2-(pyrimidin-2-yl)-6-(thiazolo[4,5-d]pyrimidin-7-yl)-2,6-diazaspiro[3.4]octan-8-yl)-1,3,4-oxadiazole], the IC50 in the assay with Kuramochi cells and at CDK2/Cyclin E1 was over 10 µM each time.

As for `O=C(c1cncs1)N1CC(c2nnc(C(F)(F)c3ccc(Cl)c(Cl)c3)o2)C2(C1)CN(c1ccccn1)C2` (stereo not shown) [I-184], the IC50 in the assay with Kuramochi cells and at CDK2/Cyclin E1 was over 10 µM in each case.

For the molecule `CC1(C)C[C@@H]1C(=O)N1CC2(CN(C(=O)c3cnc(C#N)s3)CC2c2nnc(C(F)(F)c3ccc(Cl)c(Cl)c3)o2)C1` (stereo partly shown) [I-185], the IC50 in the assay with Kuramochi cells is 5 to 10 µM; on CDK2/Cyclin E1, over 10 µM.

In the case of `O=C(c1cncs1)N1CC(c2nnc(C(F)(F)c3ccc(Cl)c(Cl)c3)o2)C2(C1)CN(C(=O)N1CCC1)C2` (stereo not shown) [I-186, Azetidin-1-yl(8-(5-((3,4-dichlorophenyl)difluoromethyl)-1,3,4-oxadiazol-2-yl)-6-(thiazole-5-carbonyl)-2,6-diazaspiro[3.4]octan-2-yl)methanone], the IC50 in the assay with Kuramochi cells and at CDK2/Cyclin E1 was over 10 µM in each case.

Consider `O=C(c1cncs1)N1CC(c2nnc(C(F)(F)c3ccc(Cl)c(Cl)c3)o2)C2(C1)CN(c1cccnn1)C2` (stereo not shown) [I-187, (8-(5-((3,4-dichlorophenyl)difluoromethyl)-1,3,4-oxadiazol-2-yl)-2-(pyridazin-3-yl)-2,6-diazaspiro[3.4]octan-6-yl)(thiazol-5-yl)methanone], for which the IC50 in the assay with Kuramochi cells and at CDK2/Cyclin E1 was over 10 µM in each case.

For `CC(C)(CO)C(=O)N1CC2(CN(C(=O)c3cncs3)CC2c2nnc(C(F)(F)c3ccc(Cl)c(Cl)c3)o2)C1` (stereo not shown) [I-189], the values for the IC50 in the assay on Kuramochi cells and on CDK2/Cyclin E1 were over 10 µM and 1 to 10 µM, respectively.

Take `CC(C)=CC(=O)N1CC2(C1)CN(C(=O)c1cncs1)CC2c1nnc(C(F)(F)c2ccc(Cl)c(Cl)c2)o1` (stereo not shown) [I-190]: the IC50 in the assay on Kuramochi cells and on CDK2/Cyclin E1 was over 10 µM in each case.
